Results reported in publication PMC8619434 (Viruses, 2021).
Structures can show the parent of a compound that is named as a salt.

Assays:
[1] = test system: SARS-CoV-2 spike protein pseudovirus; assay: microbe, parasite or virus in culture; type: cell-based; conditions: for activity at 10 µM: 293T/ACE2, 48 h, read-out: % Infectivity of SARS-2-Spike pv
[2] = test system: VSV-G pseudovirus; assay: microbe, parasite or virus in culture; type: cell-based, vesicular stomatitis virus; conditions: for activity at 10 µM: Pseudovirus, 293T/ACE2, read-out: % Infectivity of VSV-G pv
[3] = in vitro; conditions: human; for viability: % Viability of SARS-2-Spike pv

## CC[C@H]1OC(=O)[C@H](C)[C@@H](O[C@H]2C[C@@](C)(OC)[C@@H](O)[C@H](C)O2)[C@H](C)[C@@H](O[C@@H]2O[C@H](C)C[C@H](N(C)C)[C@H]2O)[C@](C)(O)C[C@@H](C)CN(C)[C@H](C)[C@@H](O)[C@]1(C)O [azithromycin dihydrate]
[1]
  activity at 10 µM: 4%
[2]
  activity at 10 µM: 100%
[3]
  viability: 94%

## CN1CCCCC1CCN1c2ccccc2Sc2ccc([S+](C)[O-])cc21 (stereo not drawn) [Mesoridazine besylate]
[3]; % viability (Table S3)
  viability at 10 µM: 97%

## CN1CCC(=C2c3ccccc3C=Cc3ccccc32)CC1 [cyproheptadine HCl]
[1]
  activity at 10 µM: 17%
[2]
  activity at 10 µM: 92%
[3]
  viability: 94%

## Cc1cc(Nc2cc(CN3CCOCC3)c3nc(C)c(Cc4ccc(Cl)cc4F)n3n2)n[nH]1 [LY2784544]
[1]
  activity at 10 µM: 2%
[2]
  activity at 10 µM: 1%
[3]
  viability: 76%

## CN1CCN(C2=Nc3cc(Cl)ccc3Nc3ccccc32)CC1 [Clozapine]
[3]
  viability at 10 µM: 103%

## CCc1cccc2c3c([nH]c12)C(CC)(CC(=O)O)OCC3 (stereo not drawn) [Etodolac]
[3]
  viability at 10 µM: 100%

## CN1CCN2c3ncccc3Cc3ccccc3C2C1 (stereo not drawn) [Mirtazapine]
[3]
  viability at 10 µM: 104%

## CN(C)CCC=C1c2ccccc2C=Cc2ccccc21 [cyclobenzaprine HCl]
[1]
  activity at 10 µM: 9%
[2]
  activity at 10 µM: 81%
[3]
  viability: 101%

## CNC(=O)c1ccccc1Sc1ccc2c(/C=C/c3ccccn3)n[nH]c2c1 [Axitinib (AG 013736), Axitinib]
[1]
  activity at 10 µM: 1%
[2]
  activity at 10 µM: 2%
[3]
  viability: 69%

## CCOC(=O)c1ncn2c1CN(C)C(=O)c1cc(F)ccc1-2 [flumazenil]
[3]
  viability at 10 µM: 104%

## Cc1cn([C@H]2C[C@H](N=[N+]=[N-])[C@@H](CO)O2)c(=O)[nH]c1=O [zidovudine]
[2]
  % Infectivity of VSV-G pv: potently inhibited

## CCC(=O)NCC[C@@H]1CCc2ccc3c(c21)CCO3 [Ramelteon]
[3]
  viability at 10 µM: 99%

## OCCOCCN1CCN(C2=Nc3ccccc3Sc3ccccc32)CC1 [Quetiapine Fumarate]
[3]; % viability (Table S3)
  viability at 10 µM: 96%

## CC(=O)c1c(C)c2cnc(Nc3ccc(N4CCNCC4)cn3)nc2n(C2CCCC2)c1=O [palbociclib isethionate]
[2]
  activity at 10 µM: 32%

## COc1ccc2cc1Oc1ccc(cc1)C[C@H]1c3cc(c(OC)cc3CCN1C)Oc1c(OC)c(OC)cc3c1[C@H](C2)N(C)CC3 [tetrandrine]
[1]
  activity at 10 µM: 1%
[2]
  activity at 10 µM: 39%

## CN(C)CC/C=C1/c2ccccc2COc2ccc(CC(=O)O)cc21 [Olopatadine HCl]
[3]
  viability at 10 µM: 99%

## CC(C)/N=c1\cc2n(-c3ccc(Cl)cc3)c3ccccc3nc-2cc1Nc1ccc(Cl)cc1 [Clofazimine]
[3]
  viability at 10 µM: 77%

## Clc1ccc2c(c1)CCc1cccnc1C2=C1CCNCC1 [desloratadine]
[2]
  activity at 10 µM: 82%
[3]
  viability: 99%

## CC(=O)c1c(C)c2cnc(Nc3ccc(N4CCNCC4)cn3)nc2n(C2CCCC2)c1=O.Cl [palbociclib HCl]
[2]
  % Infectivity of VSV-G pv: 63%

## CC(=O)OCC[N+](C)(C)C [acetylcholine]
[1]
  % Infectivity of SARS-2-Spike pv: did not enhance infectivity

## CN1CCC(=C2c3ccccc3CCn3c(C=O)cnc32)CC1 [Alcaftadine]
[3]
  viability at 10 µM: 97%

## CC(=O)O[C@H]1Cc2ccccc2N(C(N)=O)c2ccccc21 [Eslicarbazepine acetate]
[3]
  viability at 10 µM: 102%

## NC1=NCC2c3ccccc3Cc3ccccc3N12 (stereo not drawn) [Epinastine HCl]
[3]; % viability (Table S3)
  viability at 10 µM: 94%

## C[C@]12CC[C@@H]3c4ccc(O)cc4CC[C@H]3[C@@H]1CC[C@@H]2O [estradiol]
[1]
  % Infectivity of SARS-2-Spike pv: did not enhance infectivity

## C[C@]12CC[C@@H]3c4ccc(O)cc4CC[C@H]3[C@@H]1C[C@@H](O)[C@@H]2O [estriol]
[1]
  % Infectivity of SARS-2-Spike pv: did not enhance infectivity

## COc1ccc2cc1Oc1ccc(cc1)C[C@H]1c3c(cc4c(c3Oc3cc5c(cc3OC)CCN(C)[C@@H]5C2)OCO4)CCN1C [cepharanthine]
[1]
  activity at 10 µM: 1%
[2]
  activity at 10 µM: 1%

## NCCc1c[nH]c2ccc(O)cc12 [serotonin]
[1]
  % Infectivity of SARS-2-Spike pv: did not enhance infectivity

## C=C1C(=O)[C@]23[C@H](O)[C@H]1CC[C@H]2[C@@]12CO[C@]3(O)[C@@H](O)[C@@H]1C(C)(C)CC[C@@H]2O [oridonin]
[1]
  activity at 10 µM: 9%
[2]
  activity at 10 µM: 37%

## Nc1c2c(nc3ccccc13)CCCC2 [Tacrine hydrochloride]
[3]; % viability (Table S3)
  viability at 10 µM: 97%

## CC(=O)[C@H]1CC[C@H]2[C@@H]3CCC4=CC(=O)CC[C@]4(C)[C@H]3CC[C@]12C [progesterone]
[1]
  % Infectivity of SARS-2-Spike pv: did not enhance infectivity

## CN1CCN(C2=Nc3ccccc3Oc3ccc(Cl)cc32)CC1 [Loxapine Succinate]
[3]
  viability at 10 µM: 94%

## O=C1c2c(O)cccc2C([C@@H]2O[C@H](CO)[C@@H](O)[C@H](O)[C@H]2O)c2cc(CO)cc(O)c21 (stereo partly drawn) [Aloin]
[3]
  viability at 10 µM: 103%

## c1ccc2c(c1)sc1ccccc12 [Dibenzothiophene]
[3]
  viability at 10 µM: 102%

## NC(=O)N1c2ccccc2C=Cc2ccccc21 [Carbamazepine]
[3]
  viability at 10 µM: 105%

## COc1c2ccoc2cc2oc(=O)ccc12 [5-methoxypsoralen]
[3]
  viability at 10 µM: 111%

## COc1cc2c(cc1OC)CN(CCc1ccc(NC(=O)c3cccc4c(=O)c5cccc(OC)c5[nH]c34)cc1)CC2 [elacridar]
[3]
  viability at 10 µM: 97%

## CC(C(=O)O)c1ccc2c(c1)[nH]c1ccc(Cl)cc12 (stereo not drawn) [Carprofen]
[3]
  viability at 10 µM: 103%

## NC(=O)N1c2ccccc2CC(=O)c2ccccc21 [Oxcarbazepine]
[3]
  viability at 10 µM: 109%

## CN1CCN2c3ccccc3Cc3ccccc3C2C1 (stereo not drawn) [mianserin Hcl]
[3]
  viability at 10 µM: 100%

## NC(=O)N1CCC(CC(=O)N2CCC([C@H]3c4ncc(Br)cc4CCc4cc(Cl)cc(Br)c43)CC2)CC1 [lonafarnib]
[3]
  viability at 10 µM: 111%

## Cc1cc2c(s1)Nc1ccccc1N=C2N1CCN(C)CC1 [Olanzapine]
[3]
  viability at 10 µM: 106%

## C=C1CC[C@H]2C(=C)CC[C@H]3C(=C)C(=O)O[C@@H]3[C@@H]12 [Dehydrocostus Lactone]
[3]
  viability at 10 µM: 90%

## Cc1ccnc2c1NC(=O)c1cccnc1N2C1CC1 [Nevirapine]
[3]
  viability at 10 µM: 103%

## NCCc1c[nH]cn1 [histamine]
[1]
  % Infectivity of SARS-2-Spike pv: did not enhance infectivity

## COc1ccccc1OCCNCC(O)COc1cccc2[nH]c3ccccc3c12 (stereo not drawn) [Carvedilol]
[3]
  viability at 10 µM: 81%

## CC(C(=O)O)c1ccc2c(c1)Cc1cccnc1O2 (stereo not drawn) [Pranoprofen]
[3]
  viability at 10 µM: 114%

## CN1CCC(=C2c3ccccc3CC(=O)c3sccc32)CC1 [Ketotifen Fumarate]
[3]
  viability at 10 µM: 97%

## CC(=O)Oc1cccc2c1C(=O)c1c(OC(C)=O)cc(C(=O)O)cc1C2=O [Diacerein]
[3]
  viability at 10 µM: 126%

## C[C@]12CCC(=O)C=C1[C@@H]1C[C@@H]1[C@H]1[C@@H]3[C@@H]4C[C@@H]4[C@@]4(CCC(=O)O4)[C@@]3(C)CC[C@@H]12 [Drospirenone]
[2]
  activity at 10 µM: 381%

## COc1c2occc2cc2ccc(=O)oc12 [8-methoxypsoralen]
[3]
  viability at 10 µM: 105%

## CCOC(=O)c1c(CSc2ccccc2)n(C)c2cc(Br)c(O)c(CN(C)C)c12 [Arbidol]
[1]
  activity at 10 µM: 18%
[2]
  activity at 10 µM: 62%
